In the NIST ThermoML archive (doi:10.1016/j.fluid.2012.10.024):

What was measured:
[1] = mn = molality of the nth substance listed, in mol/kg; conditions: 101 kPa, Liquid, Vibrating tube method
[2] = 101.33 kPa, Liquid, Vibrating tube method

OCC1CCCCN1 (stereo unspecified) [2-(hydroxymethyl)piperidine] + O
mass density [kg/m3], [1]
Conditions	m1 = 0.0476	m1 = 0.0676	m1 = 0.0864	m1 = 0.1214	m1 = 0.1524	m1 = 0.1766	m1 = 0.2009	m1 = 0.2264	m1 = 0.2609
293.15 K	998.6	998.75	998.87	999.15	999.37	999.52	999.71	999.87	1000.11
298.15 K	997.46	997.6	997.72	997.99	998.2	998.34	998.53	998.68	998.91
303.15 K	996.06	996.19	996.31	996.57	996.77	996.91	997.09	997.24	997.46
308.15 K	994.44	994.56	994.68	994.93	995.13	995.26	995.43	995.58	995.79
313.15 K	992.59	992.74	992.85	993.1	993.28	993.41	993.58	993.72	993.92
318.15 K	990.6	990.72	990.83	991.07	991.25	991.37	991.53	991.66	991.86

OCC1CCCNC1 (stereo unspecified) [3-(hydroxymethyl)piperidine] + O
mass density [kg/m3], [1]
Conditions	m1 = 0.0562	m1 = 0.0841	m1 = 0.1205	m1 = 0.1576	m1 = 0.188	m1 = 0.2257	m1 = 0.2728	m1 = 0.3059	m1 = 0.3481
293.15 K	999.04	999.09	999.36	999.67	999.94	1000.2	1000.48	1000.72	1000.95
298.15 K	997.9	997.94	998.2	998.52	998.77	999.02	999.285	999.52	999.74
303.15 K	996.5	996.53	996.79	997.1	997.34	997.58	997.835	998.06	998.27
308.15 K	994.87	994.9	995.16	995.46	995.7	995.93	996.165	996.39	996.59
313.15 K	993.05	993.07	993.32	993.61	993.85	994.07	994.3	994.52	994.71
318.15 K	991.04	991.06	991.3	991.58	991.82	992.02	992.25	992.46	992.64

OCc1ccccn1 [α-picolyl alcohol]
[2]
Conditions	mass density [kg/m3]
291.15 K	1133.6
292.15 K	1133.1
293.15 K	1132.4
295.15 K	1130.7
297.15 K	1129.3
298.15 K	1128.7
299.15 K	1127.7
300.15 K	1127.1
302.15 K	1125.6
303.15 K	1124.8
304.15 K	1124
306.15 K	1122.4
308.15 K	1120.8
310.15 K	1119.4
312.15 K	1118.1
313.15 K	1117.2
315.15 K	1115.6
317.15 K	1114.2
318.15 K	1113.5

OCc1cccnc1 [β-picolyl alcohol]
[2]
Conditions	mass density [kg/m3]
291.15 K	1138.2
292.15 K	1137.5
293.15 K	1136.8
295.15 K	1135.3
297.15 K	1134.1
298.15 K	1133.5
299.15 K	1132.6
300.15 K	1131.8
302.15 K	1130.4
303.15 K	1129.6
304.15 K	1128.9
306.15 K	1127.5
308.15 K	1125.9
310.15 K	1124.7
312.15 K	1123.5
313.15 K	1122.6
315.15 K	1121.2
317.15 K	1120
318.15 K	1119.3
